In US10208030B2, “GPR119 agonist compounds” (Mankind Pharma Ltd., priority 2016, dated 2019):

Assays:
hGPR119 = target: T1, hGPR119 (Homo sapiens, UniProt Q8TDV5); test: In vitro cyclic AMP assay (Cisbio HTRF) in CHO-hGPR119 cells; type: cell-based; conditions: cAMP; for activation at 1 µM: 1 h, 60 min, read-out: Induction (% induction at 1 μM); for EC50: class symbols, legend not given
T1 construct: expressed in transfected cells; host or cells: CHO cells (CHO-hGPR119)
T1 sequence (Q8TDV5 1-335): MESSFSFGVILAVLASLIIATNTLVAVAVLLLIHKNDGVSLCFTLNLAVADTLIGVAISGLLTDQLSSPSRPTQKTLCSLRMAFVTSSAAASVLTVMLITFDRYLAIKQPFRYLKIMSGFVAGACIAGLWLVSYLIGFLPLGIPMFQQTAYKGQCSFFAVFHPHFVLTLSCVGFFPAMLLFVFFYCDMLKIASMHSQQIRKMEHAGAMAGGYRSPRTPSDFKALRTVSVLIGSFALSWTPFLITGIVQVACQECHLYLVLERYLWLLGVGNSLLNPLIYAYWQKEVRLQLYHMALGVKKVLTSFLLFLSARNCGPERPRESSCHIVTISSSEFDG
How it was run: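 Cells plated at 5000/well and exposed to test compound dose series for 60 min at room temperature with 1 mM IBMX and 0.5% DMSO (final). Lysis with anti-cAMP antibody/d2-cAMP detection reagents, 1 h at room temperature; HTRF read at 665/620 nm (337 nm excitation); EC50 from concentration-response.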

Male C57BL/6 mice = test: Oral glucose tolerance test in C57BL/6 mice; type: in vivo; conditions: 3 mpk and 10 mpk oral
Protocol: (§1) Male C57BL/6 mice (8-10 weeks) were grouped based on basal glucose levels and animals were fasted for 16 hours. Glucose level of each animal was estimated in blood collected from tail vein before animals were dosed orally with 0.5% Tween 80 and 0.5% NaCMC (vehicle control) and compounds at 3 and 10 mpk (n=5). After 30 minutes of compound dosing, blood glucose was again estimated and 2 g/kg/10 ml (20%) of Glucose solution was administered orally to all the animals. Blood glucose was estimated at 15, 30, 60, 90 and 120 minutes time points after glucose administration. Accu-Check active blood glucose meter was utilised for estimation of blood from tail vein.
Glucose reduction observed in animals treated with compounds of present invention is represented in terms of % AUC reduction. A greater glucose reduction in oral glucose tolerance test indicates the compound's efficacy in this rodent species.

Male SD rats = test: Oral glucose tolerance test in Sprague-Dawley rats; type: in vivo; conditions: 3 mpk and 10 mpk oral
Protocol: as §1, with “SD rats” for “C57BL/6 mice”
Glucose reduction observed in animals treated with GPR119 agonists is represented in terms of % AUC reduction. A greater glucose reduction in oral glucose tolerance test indicates the compound's efficacy in this rodent species.

Row | Compound | activation at 1 µM (hGPR119) | EC50 (hGPR119) | glucose reduction (% AUC reduction) in oral glucose tolerance test (Male C57BL/6 mice) | glucose reduction (% AUC reduction) in oral glucose tolerance test (Male SD rats)
1 | CCCc1cnc(N2CCC(C(C)Oc3nn4cc(-c5ccc(S(C)(=O)=O)nc5)nc4s3)CC2)nc1 (stereo in doubt) [Compound 1081, 2-((S)-1-(1-(5-propylpyrimidin-2-yl)piperidin-4-yl)ethoxy)-6-(6-(methylsulfonyl)pyridin-3-yl)imidazo[2,1-b][1,3,4]thiadiazole] | 66% | A++ | significant dose dependent glucose reduction | 
2 | CC(Oc1nn2cc(-c3ccc(S(C)(=O)=O)cc3F)nc2s1)C1CCN(c2ncc(Cl)cn2)CC1 (stereo in doubt) [Compound 1090, 2-((S)-1-(1-(5-chloropyrimidin-2-yl)piperidin-4-yl)ethoxy)-6-(2-fluoro-4-(methylsulfonyl)phenyl)imidazo[2,1-b][1,3,4]thiadiazole] | 76% | A++ | significant dose dependent glucose reduction | significant dose dependent glucose reduction
3 | CC(C)c1noc(N2CCC([C@@H](C)Oc3nn4cc(-c5ccncc5)nc4s3)CC2)n1 [Compound 1059, (R)-3-isopropyl-5-(4-(1-((6-(pyridin-4-yl)imidazo[2,1-b][1,3,4]thiadiazol-2-yl)oxy)ethyl)piperidin-1-yl)-1,2,4-oxadiazole] | 68% | A++ | significant dose dependent glucose reduction | significant dose dependent glucose reduction
4 | CCCc1cnc(N2CCC([C@H](C)Oc3nn4cc(-c5ccc(S(C)(=O)=O)cc5)nc4s3)CC2)nc1 [Compound 1067, (S)-6-(4-(methylsulfonyl)phenyl)-2-(1-(1-(5-propylpyrimidin-2-yl)piperidin-4-yl)ethoxy)imidazo[2,1-b][1,3,4]thiadiazole] | 55% | A++ | significant dose dependent glucose reduction | significant dose dependent glucose reduction
5 | CC(C)c1noc(N2CCC([C@H](C)Oc3nn4cc(-c5cnc(Cl)nc5)nc4s3)CC2)n1 [Compound 1071, (S)-5-(4-(1-((6-(2-chloropyrimidin-5-yl)imidazo[2,1-b][1,3,4]thiadiazol-2-yl)oxy)ethyl)piperidin-1-yl)-3-isopropyl-1,2,4-oxadiazole] | 75% | A++ | significant dose dependent glucose reduction | significant dose dependent glucose reduction
6 | CC(C)c1noc(N2CCC([C@H](C)Oc3nn4cc(-c5cnc(S(C)(=O)=O)nc5)nc4s3)CC2)n1 [Compound 1072, (S)-3-isopropyl-5-(4-(1-((6-(2-(methylsulfonyl)pyrimidin-5-yl)imidazo[2,1-b][1,3,4]thiadiazol-2-yl)oxy)ethyl)piperidin-1-yl)-1,2,4-oxadiazole] | 72% | A++ | significant dose dependent glucose reduction | significant dose dependent glucose reduction
7 | CCc1cnc(N2CCC([C@H](C)Oc3nn4cc(-c5ccc(S(C)(=O)=O)cc5F)nc4s3)CC2)nc1 [Compound 1086, 2-((S)-1-(1-(5-ethylpyrimidin-2-yl)piperidin-4-yl)ethoxy)-6-(2-fluoro-4-(methylsulfonyl)phenyl)imidazo[2,1-b][1,3,4]thiadiazole] | 87% | A++ | significant dose dependent glucose reduction | significant dose dependent glucose reduction
8 | CC(C)c1noc(N2CCC([C@@H](C)Oc3nn4cc(-c5cnc(Cl)cn5)nc4s3)CC2)n1 [Compound 1087, 2-((R)-1-(1-(3-isopropyl-1,2,4-oxadiazol-5-yl)piperidin-4-yl)ethoxy)-6-(5-chloropyrazin-2-yl)imidazo[2,1-b][1,3,4]thiadiazole] | 75% |  | significant dose dependent glucose reduction | significant dose dependent glucose reduction
9 | CC(C)c1noc(N2CCC([C@@H](C)Oc3nn4cc(-c5ccc(S(C)(=O)=O)cc5F)nc4s3)CC2)n1 [Compound 1088, 2-((R)-1-(1-(3-isopropyl-1,2,4-oxadiazol-5-yl)piperidin-4-yl)ethoxy)-6-(2-fluoro-4-(methylsulfonyl)phenyl)imidazo[2,1-b][1,3,4]thiadiazole] | 73% | A++ | significant dose dependent glucose reduction | 
10 | CC(C)c1noc(N2CCC(C(C)Oc3nn4cc(-c5ccc(S(C)(=O)=O)cc5C(F)(F)F)nc4s3)CC2)n1 (centres unmarked) [Compound 1091, 2-(1-(1-(3-isopropyl-1,2,4-oxadiazol-5-yl)piperidin-4-yl)ethoxy)-6-(2-(trifluoromethyl)-4-(methylsulfonyl)phenyl)imidazo[2,1-b][1,3,4]thiadiazole] | 33% |  |  | significant dose dependent glucose reduction

Second part, led by results:

Row | activation at 1 µM (hGPR119) | EC50 (hGPR119) | Compound | glucose reduction (% AUC reduction) in oral glucose tolerance test (Male C57BL/6 mice) | glucose reduction (% AUC reduction) in oral glucose tolerance test (Male SD rats)
11 | 14% |  | CC(C)c1noc(N2CCC(C(C)Oc3nc(-c4ccc(S(C)(=O)=O)cc4)ns3)CC2)n1 (centres unmarked) [Compound 1115, 4-(1-(3-(4-(methylsulfonyl)phenyl)-1,2,4-thiadiazol-5-yloxy)ethyl)-1-(3-isopropyl-1,2,4-oxadiazol-5-yl)piperidine] |  | 
12 | 36% |  | CC(C)c1noc(N2CCC(Oc3nc(-c4ccc(S(C)(=O)=O)cc4)ns3)CC2)n1 [Compound 1116, 4-(3-(4-(methylsulfonyl)phenyl)-1,2,4-thiadiazol-5-yloxy)-1-(3-isopropyl-1,2,4-oxadiazol-5-yl)piperidine] |  | 
13 | 2% |  | CC(C)c1noc(N2CCC(COc3nc(-c4ccc(S(C)(=O)=O)cc4)ns3)CC2)n1 [Compound 1117, 4-((3-(4-(methylsulfonyl)phenyl)-1,2,4-thiadiazol-5-yloxy)methyl)-1-(3-isopropyl-1,2,4-oxadiazol-5-yl)piperidine] |  | 
14 | 7% |  | CC(C)c1noc(N2CCC(Oc3nsc(-c4ccc(S(C)(=O)=O)nc4)n3)CC2)n1 [Compound 1119, 5-(3-(1-(3-isopropyl-1,2,4-oxadiazol-5-yl)piperidin-4-yloxy)-1,2,4-thiadiazol-5-yl)-2-(methylsulfonyl)pyridine] |  | 
15 | 15% |  | CC(C)c1noc(N2CCC(COc3nsc(-c4ccc(S(C)(=O)=O)nc4)n3)CC2)n1 [Compound 1120, 5-(3-((1-(3-isopropyl-1,2,4-oxadiazol-5-yl)piperidin-4-yl)methoxy)-1,2,4-thiadiazol-5-yl)-2-(methylsulfonyl)pyridine] |  | 
16 | 18% |  | CCCc1cnc(N2CCC(Oc3nc(-c4ccc(S(C)(=O)=O)nc4)ns3)CC2)nc1 [Compound 1123, 2-(4-(3-(6-(methylsulfonyl)pyridin-3-yl)-1,2,4-thiadiazol-5-yloxy)piperidin-1-yl)-5-propylpyrimidine] |  | 
17 | 6% |  | CC(C)c1noc(N2CCC(Oc3nc(N(C)c4ccc(S(C)(=O)=O)nc4)ns3)CC2)n1 [Compound 1124, N-(5-(1-(3-isopropyl-1,2,4-oxadiazol-5-yl)piperidin-4-yloxy)-1,2,4-thiadiazol-3-yl)-N-methyl-6-(methylsulfonyl)pyridin-3-amine] |  | 
18 | 7% |  | CC(C)c1noc(N2CCC(Nc3nc(-c4ccc(S(C)(=O)=O)nc4)ns3)CC2)n1 [Compound 1126, 1-(3-isopropyl-1,2,4-oxadiazol-5-yl)-N-(3-(6-(methylsulfonyl)pyridin-3-yl)-1,2,4-thiadiazol-5-yl)piperidin-4-amine] |  | 
19 | 4% |  | CC(C)c1noc(N2CCC(N(C)c3nc(-c4ccc(S(C)(=O)=O)nc4)ns3)CC2)n1 [Compound 1127, 1-(3-isopropyl-1,2,4-oxadiazol-5-yl)-N-methyl-N-(3-(6-(methylsulfonyl)pyridin-3-yl)-1,2,4-thiadiazol-5-yl)piperidin-4-amine] |  | 
